Like-named read-outs stand apart in the source and are kept apart here. Ends that are not written are not given here.
Experiments:
[1] = cited from earlier work; for inhibition of gastric emptying: at doses of 100µg; for EC(50): inhibition of gastric emptying, subcutaneous
[2] = assay type: in vivo, NIH/Swiss mice; conditions: 80 nmol/Kg; AUC240
Experimental: Gavage (1.5g/kg) was given at t=0. Sample was taken at t=30 min.

vasoactive intestinal peptide: peptide compared for inhibition of gastric emptying in conscious rats (HSDAVFTDNYTRLRKQMAVKKYLNSILN; ends and bridges not checked; UniProt P01282 125-152, looked up)
inhibition of gastric emptying [1]: weakly active or inactive

CC[C@H](C)[C@H](NC(=O)[C@H](CO)NC(=O)[C@H](Cc1ccc(O)cc1)NC(=O)[C@H](CC(=O)O)NC(=O)[C@H](CO)NC(=O)[C@@H](NC(=O)[C@H](Cc1ccccc1)NC(=O)[C@@H](NC(=O)CNC(=O)[C@H](CCC(=O)O)NC(=O)[C@@H](C)NC(=O)[C@@H](N)Cc1ccc(O)cc1)[C@@H](C)O)[C@@H](C)CC)C(=O)N[C@@H](C)C(=O)N[C@@H](CCSC)C(=O)N[C@@H](CC(=O)O)C(=O)N[C@@H](CCCCN)C(=O)N[C@H](C(=O)N[C@@H](Cc1c[nH]cn1)C(=O)N[C@@H](CCC(N)=O)C(=O)N[C@@H](CCC(N)=O)C(=O)N[C@@H](CC(=O)O)C(=O)N[C@@H](Cc1ccccc1)C(=O)N[C@H](C(=O)N[C@@H](CC(N)=O)C(=O)N[C@@H](Cc1c[nH]c2ccccc12)C(=O)N[C@@H](CC(C)C)C(=O)N[C@@H](CC(C)C)C(=O)N[C@@H](C)C(=O)N[C@@H](CCC(N)=O)C(=O)N[C@@H](CCCCN)C(=O)N1CCC[C@H]1C(=O)N[C@@H](CO)C(=O)N[C@@H](CO)C(=O)NCC(=O)N[C@@H](C)C(=O)N1CCC[C@H]1C(=O)NCC(=O)N1CCC[C@H]1C(=O)N[C@@H](CO)C(N)=O)C(C)C)[C@@H](C)CC [0601 GIP49 52]
Basal Glucose Lowering at 80 nmol/Kg [2]: -1, AUC2 40%

Secretin: peptide compared for inhibition of gastric emptying in conscious rats
EC(50) ([1]; conscious rats ~200g): 1.87 µg
EC(50) ([1]; conscious rats): 3.09 nmol/kg

Rat CGRP: peptide compared for inhibition of gastric emptying in conscious rats (SCNTATCVTHRLAGLLSRSGGVVKDNFVPTNVGSEAF; ends and bridges not checked; cysteine pairing not given here; UniProt P01256 83-119, looked up)
EC(50) ([1]; conscious rats ~200g): 1.62 µg
EC(50) ([1]; conscious rats): 2.13 nmol/kg

PACAP38: pituitary adenylate cyclase activating peptide (HSDGIFTDSYSRYRKQMAVKKYLAAVLGKRYKQRVKNK-NH2; ends and bridges not checked; UniProt P18509 132-169, looked up)
inhibition of gastric emptying [1]: weakly active or inactive

CSNLSTCVLGKLSQELHKLQTYPRTNTGSGTP [Salmon calcitonin]
EC(50) ([1]; conscious rats ~200g): 0.19 µg
EC(50) ([1]; conscious rats): 0.28 nmol/kg

neuropeptide Y: peptide compared for inhibition of gastric emptying in conscious rats
inhibition of gastric emptying [1]: weakly active or inactive

CC[C@H](C)[C@H](NC(=O)[C@H](CO)NC(=O)[C@H](Cc1ccc(O)cc1)NC(=O)[C@H](CC(=O)O)NC(=O)[C@H](CO)NC(=O)[C@@H](NC(=O)[C@H](Cc1ccccc1)NC(=O)[C@@H](NC(=O)CNC(=O)[C@H](CCC(=O)O)NC(=O)[C@@H](C)NC(=O)[C@@H](N)Cc1ccc(O)cc1)[C@@H](C)O)[C@@H](C)CC)C(=O)N[C@@H](C)C(=O)N[C@@H](CCSC)C(=O)N[C@@H](CC(=O)O)C(=O)N[C@@H](CCCCN)C(=O)N[C@H](C(=O)N[C@@H](Cc1c[nH]cn1)C(=O)N[C@@H](CCC(N)=O)C(=O)N[C@@H](CCC(N)=O)C(=O)N[C@@H](CC(=O)O)C(=O)N[C@@H](Cc1ccccc1)C(=O)N[C@H](C(=O)N[C@@H](CC(N)=O)C(=O)N[C@@H](Cc1c[nH]c2ccccc12)C(=O)N[C@@H](CC(C)C)C(=O)N[C@@H](CC(C)C)C(=O)N[C@@H](C)C(=O)N[C@@H](CCC(N)=O)C(=O)N[C@@H](CCCCN)C(=O)N[C@H](C(=O)N[C@@H](CO)C(=O)N1CCC[C@H]1C(=O)N[C@@H](CCCNC(=N)N)C(=O)N1CCC[C@H]1C(=O)N1CCC[C@H]1C(=O)N[C@@H](CO)C(N)=O)[C@@H](C)O)C(C)C)[C@@H](C)CC [Compound 0601GIP4236]
Basal Glucose Lowering at 80 nmol/Kg [2]: -12%,

CC[C@H](C)[C@H](NC(=O)[C@H](CO)NC(=O)[C@H](Cc1ccc(O)cc1)NC(=O)[C@H](CC(=O)O)NC(=O)[C@H](CO)NC(=O)[C@@H](NC(=O)[C@H](Cc1ccccc1)NC(=O)[C@@H](NC(=O)CNC(=O)[C@H](CCC(=O)O)NC(=O)[C@@H](C)NC(=O)[C@@H](N)Cc1ccc(O)cc1)[C@@H](C)O)[C@@H](C)CC)C(=O)N[C@@H](C)C(=O)N[C@@H](CCSC)C(=O)N[C@@H](CC(=O)O)C(=O)N[C@@H](CCCCN)C(=O)N[C@H](C(=O)N[C@@H](Cc1c[nH]cn1)C(=O)N[C@@H](CCC(N)=O)C(=O)N[C@@H](CCC(N)=O)C(=O)N[C@@H](CC(=O)O)C(=O)N[C@@H](Cc1ccccc1)C(=O)N[C@H](C(=O)N[C@@H](CC(N)=O)C(=O)N[C@@H](Cc1c[nH]c2ccccc12)C(=O)N[C@@H](CC(C)C)C(=O)N[C@@H](CC(C)C)C(=O)N[C@@H](C)C(=O)N[C@@H](CCC(N)=O)C(=O)N[C@@H](CCCCN)C(=O)NCCC(=O)NCCC(=O)N1CCC[C@H]1C(=O)N[C@@H](CCCCN)C(=O)N[C@@H](CCCCN)C(=O)N[C@H](C(=O)N[C@@H](CCCNC(=N)N)C(=O)N[C@@H](Cc1ccc(O)cc1)C(=O)N[C@@H](CO)C(N)=O)[C@@H](C)CC)C(C)C)[C@@H](C)CC [0601GIP4648]
Basal Glucose Lowering at 80 nmol/Kg [2]: -8%, AUC240

CC[C@H](C)[C@H](NC(=O)[C@H](CO)NC(=O)[C@H](Cc1ccc(O)cc1)NC(=O)[C@H](CC(=O)O)NC(=O)[C@H](CO)NC(=O)[C@@H](NC(=O)[C@H](Cc1ccccc1)NC(=O)[C@@H](NC(=O)CNC(=O)[C@H](CCC(=O)O)NC(=O)[C@@H](C)NC(=O)[C@@H](N)Cc1ccc(O)cc1)[C@@H](C)O)[C@@H](C)CC)C(=O)N[C@@H](C)C(=O)N[C@@H](CCSC)C(=O)N[C@@H](CC(=O)O)C(=O)N[C@@H](CCCCN)C(=O)N[C@H](C(=O)N[C@@H](Cc1c[nH]cn1)C(=O)N[C@@H](CCC(N)=O)C(=O)N[C@@H](CCC(N)=O)C(=O)N[C@@H](CC(=O)O)C(=O)N[C@@H](Cc1ccccc1)C(=O)N[C@H](C(=O)N[C@@H](CC(N)=O)C(=O)N[C@@H](Cc1c[nH]c2ccccc12)C(=O)N[C@@H](CC(C)C)C(=O)N[C@@H](CC(C)C)C(=O)N[C@@H](C)C(=O)N[C@@H](CCC(N)=O)C(=O)N[C@@H](CCCCN)C(=O)N1CCC[C@H]1C(=O)N[C@@H](CO)C(=O)N[C@@H](CCCCN)C(=O)N[C@@H](CCC(=O)O)C(=O)N[C@H](C(=O)N[C@H](C(=O)N[C@@H](CO)C(N)=O)[C@@H](C)CC)[C@@H](C)CC)C(C)C)[C@@H](C)CC [Compound 0601GIP4234]
Basal Glucose Lowering at 80 nmol/Kg [2]: -11%, AUC240

CC[C@H](C)[C@H](NC(=O)[C@H](CO)NC(=O)[C@H](Cc1ccc(O)cc1)NC(=O)[C@H](CC(=O)O)NC(=O)[C@H](CO)NC(=O)[C@@H](NC(=O)[C@H](Cc1ccccc1)NC(=O)[C@@H](NC(=O)CNC(=O)[C@H](CCC(=O)O)NC(=O)[C@@H](C)NC(=O)[C@@H](N)Cc1ccc(O)cc1)[C@@H](C)O)[C@@H](C)CC)C(=O)N[C@@H](C)C(=O)N[C@@H](CCSC)C(=O)N[C@@H](CC(=O)O)C(=O)N[C@@H](CCCCN)C(=O)N[C@H](C(=O)N[C@@H](Cc1c[nH]cn1)C(=O)N[C@@H](CCC(N)=O)C(=O)N[C@@H](CCC(N)=O)C(=O)N[C@@H](CC(=O)O)C(=O)N[C@@H](Cc1ccccc1)C(=O)N[C@H](C(=O)N[C@@H](CC(N)=O)C(=O)N[C@@H](Cc1c[nH]c2ccccc12)C(=O)N[C@@H](CC(C)C)C(=O)N[C@@H](CC(C)C)C(=O)N[C@@H](C)C(=O)N[C@@H](CCC(N)=O)C(=O)N[C@@H](CCCCN)C(=O)N1CCC[C@H]1C(=O)N[C@@H](CCCCN)C(=O)NCC(=O)N[C@@H](CCCCN)C(=O)NCC(=O)N[C@@H](CCCCN)C(=O)N[C@@H](CO)C(N)=O)C(C)C)[C@@H](C)CC [0601GIP4700]
Basal Glucose Lowering at 80 nmol/Kg [2]: -6%, AUC240

CC[C@H](C)[C@H](NC(=O)[C@H](CO)NC(=O)[C@H](Cc1ccc(O)cc1)NC(=O)[C@H](CC(=O)O)NC(=O)[C@H](CO)NC(=O)[C@@H](NC(=O)[C@H](Cc1ccccc1)NC(=O)[C@@H](NC(=O)CNC(=O)[C@H](CCC(=O)O)NC(=O)[C@@H](C)NC(=O)[C@@H](N)Cc1ccc(O)cc1)[C@@H](C)O)[C@@H](C)CC)C(=O)N[C@@H](C)C(=O)N[C@@H](CC(C)C)C(=O)N[C@@H](CC(=O)O)C(=O)N[C@@H](CCCCN)C(=O)N[C@H](C(=O)N[C@@H](CCCNC(=N)N)C(=O)N[C@@H](CCC(N)=O)C(=O)N[C@@H](CCC(N)=O)C(=O)N[C@@H](CCC(=O)O)C(=O)N[C@@H](Cc1ccccc1)C(=O)N[C@H](C(=O)N[C@@H](CC(N)=O)C(=O)N[C@@H](Cc1c[nH]c2ccccc12)C(=O)N[C@@H](CC(C)C)C(=O)N[C@@H](CC(C)C)C(=O)N[C@@H](C)C(=O)N[C@@H](CCC(N)=O)C(=O)N[C@@H](CCCCN)C(=O)N1CCC[C@H]1C(=O)N[C@@H](CCCCN)C(=O)N[C@@H](CCCCN)C(=O)N[C@H](C(=O)N[C@@H](CCCNC(=N)N)C(=O)N[C@@H](Cc1ccc(O)cc1)C(=O)N[C@@H](CO)C(N)=O)[C@@H](C)CC)C(C)C)[C@@H](C)CC [0601GIP4539]
Basal Glucose Lowering at 80 nmol/Kg [2]: -5%, AUC240

CC[C@H](C)[C@H](NC(=O)[C@H](CO)NC(=O)[C@H](Cc1ccc(O)cc1)NC(=O)[C@H](CC(=O)O)NC(=O)[C@H](CO)NC(=O)[C@@H](NC(=O)[C@H](Cc1ccccc1)NC(=O)[C@@H](NC(=O)CNC(=O)[C@H](CCC(=O)O)NC(=O)[C@@H](C)NC(=O)[C@@H](N)Cc1ccc(O)cc1)[C@@H](C)O)[C@@H](C)CC)C(=O)N[C@@H](C)C(=O)N[C@@H](CCSC)C(=O)N[C@@H](CC(=O)O)C(=O)N[C@@H](CCCCN)C(=O)N[C@H](C(=O)N[C@@H](Cc1c[nH]cn1)C(=O)N[C@@H](CCC(N)=O)C(=O)N[C@@H](CCC(N)=O)C(=O)N[C@@H](CC(=O)O)C(=O)N[C@@H](Cc1ccccc1)C(=O)N[C@H](C(=O)N[C@@H](CCC(N)=O)C(=O)N[C@@H](Cc1c[nH]c2ccccc12)C(=O)N[C@@H](CC(C)C)C(=O)N[C@@H](CC(C)C)C(=O)N[C@@H](C)C(=O)N[C@@H](CCC(N)=O)C(=O)N[C@@H](CCCCN)C(=O)N1CCC[C@H]1C(=O)N[C@@H](CO)C(=O)N[C@@H](CO)C(=O)NCC(=O)N[C@@H](C)C(=O)N1CCC[C@H]1C(=O)N1CCC[C@H]1C(=O)N1CCC[C@H]1C(=O)N[C@@H](CO)C(N)=O)C(C)C)[C@@H](C)CC [0601 GIP48 46]
Basal Glucose Lowering at 80 nmol/Kg [2]: -6%, AUC2 40

Reference: patent EP2057188B1 (priority 2006, dated 2008)
